Patent publication US20080280991A1, “SUBSTITUTED NAPHTHALENES” (AUSPEX PHARMACEUTICALS, INC., priority 2007, published 2008)

Key:
[1] = in vivo; cited from earlier work
[2] = In vitro liver microsomal stability assay; type: in vitro ADME; conditions: 1 mg per mL liver microsome protein, NADPH-generating system, 5 microgram per mL compound, 37° C., 0-60 min, LC/MS/MS
Procedure: Liver microsomal stability assays are conducted at 1 mg per mL liver microsome protein with an NADPH-generating system in 2% NaHCO3 (2.2 mM NADPH, 25.6 mM glucose 6-phosphate, 6 units per mL glucose 6-phosphate dehydrogenase and 3.3 mM MgCl2). Test compounds are prepared as solutions in 20% acetonitrile-water and added to the assay mixture (final assay concentration 5 microgram per mL) and incubated at 37° C. Final concentration of acetonitrile in the assay should be <1%. Aliquots ([…]) are taken out at times 0, 15, 30, 45, and 60 min, and diluted with ice cold acetonitrile (200 μL) to stop the reactions. Samples are centrifuged at 12,000 RPM for 10 min to precipitate proteins. Supernatants are transferred to microcentrifuge tubes and stored for LC/MS/MS analysis of the degradation half-life of the test compounds. […] For example, the degradation half-life of Example 9 was increased by 20% as compared to non-isotopically enriched agomelatine.

melatonin receptor = conditions: relative to agomelatine; cited from earlier work

COc1ccc2cccc(CCNC(C)=O)c2c1 [agomelatine, N-[2-(7-Methoxy-naphthalen-1-yl)-ethyl]-acetamide]
terminal elimination half-life [1]: 2.3 h

[2H]C([2H])([2H])Oc1ccc2cccc(C([2H])([2H])C([2H])([2H])NC(=O)C([2H])([2H])[2H])c2c1 [Example 9, d10-N-[2-(7-Methoxy-naphthalen-1-yl)-ethyl]-acetamide]
increase in the degradation half-life as compared to the non-isotopically enriched drug (agomelatine) [2]: 20%

CC(=O)NCCc1cccc2ccc(O)cc12 [S 21517]
fold less potency for the melatonin receptor than the parent compound (agomelatine) (melatonin receptor): 100 fold
